# Assay results: PMC6394493 (Cancer Chemotherapy and Pharmacology, 2018)
# Test: Safety assessment: adverse events
# Format: in vivo, Japanese patients
# Details: regardless of study drug relationship
# Text: Safety assessments consisted of monitoring and recording of all AEs, including laboratory abnormalities and vital signs. DLTs were defined as an AE or a laboratory abnormality assessed as related to the study drug and occurring within the first 28 days of treatment (Cycle 1), as defined in Supplemental Table S1.
smiles,measurement,setting,value
Cn1c(=O)n(-c2ccc(C(C)(C)C#N)cc2)c2c3cc(-c4cnc5ccccc5c4)ccc3ncc21 [BEZ235],"Blood alkaline phosphatase increased, All grades",qd 1000 mg (n = 8),2 (25.0) n (%)
same,"Blood alkaline phosphatase increased, Grade ¾",qd 1000 mg (n = 8),0 n (%)
same,"Cancer pain, All grades",qd 1000 mg (n = 8),2 (25.0) n (%)
same,"Cancer pain, Grade ¾",qd 1000 mg (n = 8),0 n (%)
same,"Decreased appetite, All grades",qd 1000 mg (n = 8),7 (87.5) n (%)
same,"Decreased appetite, Grade ¾",qd 1000 mg (n = 8),0 n (%)
same,"Diarrhea, All grades",qd 1000 mg (n = 8),7 (87.5) n (%)
same,"Diarrhea, Grade ¾",qd 1000 mg (n = 8),0 n (%)
same,"Dysgeusia, All grades",qd 1000 mg (n = 8),2 (25.0) n (%)
same,"Dysgeusia, Grade ¾",qd 1000 mg (n = 8),0 n (%)
same,"Fatigue, All grades",qd 1000 mg (n = 8),6 (75.0) n (%)
same,"Fatigue, Grade ¾",qd 1000 mg (n = 8),1 (12.5) n (%)
same,"Leukopenia, All grades",qd 1000 mg (n = 8),2 (25.0) n (%)
same,"Leukopenia, Grade ¾",qd 1000 mg (n = 8),1 (12.5) n (%)
same,"Lymphopenia, All grades",qd 1000 mg (n = 8),2 (25.0) n (%)
same,"Lymphopenia, Grade ¾",qd 1000 mg (n = 8),2 (25.0) n (%)
same,"Nausea, All grades",qd 1000 mg (n = 8),7 (87.5) n (%)
same,"Nausea, Grade ¾",qd 1000 mg (n = 8),0 n (%)
same,"Neutropenia, All grades",qd 1000 mg (n = 8),1 (12.5) n (%)
same,"Neutropenia, Grade ¾",qd 1000 mg (n = 8),1 (12.5) n (%)
same,"Pyrexia, All grades",qd 1000 mg (n = 8),2 (25.0) n (%)
same,"Pyrexia, Grade ¾",qd 1000 mg (n = 8),0 n (%)
same,"Rash, All grades",qd 1000 mg (n = 8),5 (62.5) n (%)
same,"Rash, Grade ¾",qd 1000 mg (n = 8),1 (12.5) n (%)
same,"Stomatitis, All grades",qd 1000 mg (n = 8),3 (37.5) n (%)
same,"Stomatitis, Grade ¾",qd 1000 mg (n = 8),0 n (%)
same,"Thrombocytopenia, All grades",qd 1000 mg (n = 8),4 (50.0) n (%)
same,"Thrombocytopenia, Grade ¾",qd 1000 mg (n = 8),0 n (%)
same,"Vomiting, All grades",qd 1000 mg (n = 8),4 (50.0) n (%)
same,"Vomiting, Grade ¾",qd 1000 mg (n = 8),0 n (%)
same,"AEs Total, All grades",qd 1200 mg (n = 6),6 (100.0) n (%)
same,"AEs Total, Grade ¾",qd 1200 mg (n = 6),6 (100.0) n (%)
same,"Alanine aminotransferase increased, All grades",qd 1200 mg (n = 6),1 (16.7) n (%)
same,"Alanine aminotransferase increased, Grade ¾",qd 1200 mg (n = 6),0 n (%)
same,"Blood alkaline phosphatase increased, All grades",qd 1200 mg (n = 6),1 (16.7) n (%)
same,"Blood alkaline phosphatase increased, Grade ¾",qd 1200 mg (n = 6),1 (16.7) n (%)
same,"Cancer pain, All grades",qd 1200 mg (n = 6),1 (16.7) n (%)
same,"Cancer pain, Grade ¾",qd 1200 mg (n = 6),0 n (%)
same,"Decreased appetite, All grades",qd 1200 mg (n = 6),6 (100.0) n (%)
same,"Decreased appetite, Grade ¾",qd 1200 mg (n = 6),1 (16.7) n (%)
same,"Diarrhea, All grades",qd 1200 mg (n = 6),6 (100.0) n (%)
same,"Diarrhea, Grade ¾",qd 1200 mg (n = 6),0 n (%)
same,"Dysgeusia, All grades",qd 1200 mg (n = 6),3 (50.0) n (%)
same,"Dysgeusia, Grade ¾",qd 1200 mg (n = 6),0 n (%)
same,"Fatigue, All grades",qd 1200 mg (n = 6),4 (66.7) n (%)
same,"Fatigue, Grade ¾",qd 1200 mg (n = 6),2 (33.3) n (%)
same,"Leukopenia, All grades",qd 1200 mg (n = 6),1 (16.7) n (%)
same,"Leukopenia, Grade ¾",qd 1200 mg (n = 6),0 n (%)
same,"Lymphopenia, All grades",qd 1200 mg (n = 6),1 (16.7) n (%)
same,"Lymphopenia, Grade ¾",qd 1200 mg (n = 6),1 (16.7) n (%)
same,"Nausea, All grades",qd 1200 mg (n = 6),5 (83.3) n (%)
same,"Nausea, Grade ¾",qd 1200 mg (n = 6),0 n (%)
same,"Neutropenia, All grades",qd 1200 mg (n = 6),2 (33.3) n (%)
same,"Neutropenia, Grade ¾",qd 1200 mg (n = 6),0 n (%)
same,"Pyrexia, All grades",qd 1200 mg (n = 6),2 (33.3) n (%)
same,"Pyrexia, Grade ¾",qd 1200 mg (n = 6),0 n (%)
same,"Rash, All grades",qd 1200 mg (n = 6),1 (16.7) n (%)
same,"Rash, Grade ¾",qd 1200 mg (n = 6),1 (16.7) n (%)
same,"Stomatitis, All grades",qd 1200 mg (n = 6),6 (100.0) n (%)
same,"Stomatitis, Grade ¾",qd 1200 mg (n = 6),1 (16.7) n (%)
same,"Thrombocytopenia, All grades",qd 1200 mg (n = 6),0 n (%)
same,"Thrombocytopenia, Grade ¾",qd 1200 mg (n = 6),0 n (%)
same,"Vomiting, All grades",qd 1200 mg (n = 6),5 (83.3) n (%)
same,"Vomiting, Grade ¾",qd 1200 mg (n = 6),0 n (%)
same,"AEs Total, All grades",qd 1400 mg (n = 7),7 (100.0) n (%)
same,"AEs Total, Grade ¾",qd 1400 mg (n = 7),5 (71.4) n (%)
same,"Alanine aminotransferase increased, All grades",qd 1400 mg (n = 7),3 (42.9) n (%)
same,"Alanine aminotransferase increased, Grade ¾",qd 1400 mg (n = 7),1 (14.3) n (%)
same,"Blood alkaline phosphatase increased, All grades",qd 1400 mg (n = 7),2 (28.6) n (%)
